The values below come from patent US20130078260A1, “COMPOUNDS TARGETING THE VEGF AND/OR HIF PATHWAY SUCH AS SORAFENIB OR VATALANIB FOR USE IN THE TREATMENT OF OTITIS MEDIA” (MEDICAL RESEARCH COUNCIL, priority 2010, published 2013).

Structures are written as SMILES. Read-outs that look alike come from different tables or passages of the source. Marks after values point to notes of the source that are not given here.

The subject of one data set is mice. The following applies: mouse, in vivo, po. From the text: (§1) Drug treatment, ABR and analysis of inflammation. […] The sham
In data set [1] the test system is Jbo/+ mice middle ear mucosa. Briefly: Histological analysis of inflammation in middle ear mucosa of drug-treated Jbo/+ mice. It is filed as in vivo, mouse. The procedure: as §1
(§2) Jbo/+ group was matched for age, gender and pre-trial ABR (30-60 dB) and received vehicle alone. A click-evoked ABR (Zheng, Q. Y., et al. (1999) Hearing Res. 130, 94-107) was measured at the beginning and end of the trial (or after 3 wk in the 50 mg/kg PTK787 trial). For ABR with recovery, anesthesia was induced by i.p. injection with a mixture of 10 mg/kg xylazine and 100 mg/kg ketamine and was reversed by 5 mg/kg atipamezole hydrochloride. Histology was assessed at 4 wk in both PTK787 trials.
Image capture and analysis. Digital images were captured on an Olympus BX51 microscope using ×20, ×40 or ×60 Plan Achromat objectives with neutral density filter, on a ColorView Soft Imaging System software using automatic exposures. In the drug trials, H&E stained sections for image analysis were scanned at ×400 magnification on a Nanozoomer digital pathology system (Hamamatsu Photonics). Eardrum thickness and the thickness of the mucosa along its medial surface (avoiding the cochlea and the region adjacent to the opening of the Eustachian tube) were averaged from 5 measurements. The number of capillaries and lymphatic vessels and their respective diameters were measured in a standardized 1000 μm length of medial mucosa. The treatment and genotype were blinded from the assessor when making the morphological measurements.
(§3) Statistics. Student t-tests or Mann Whitney U tests (for ABR measurements where interval data was in 5 dB increments) were performed and test values p<0.05 were considered significant. Percentages were arcsine transformed before using t-tests. In the drug trials, 1-tailed tests were used compare drug and sham-treated groups, otherwise 2-tailed tests were used.

For another data set, the system named is WT mice. Put plainly: Click-evoked ABR change in drug-treated WT littermate mice. It is filed as in vivo, mouse. The procedure:
as §1, §2, §3

Another data set has as its system Jbo/+ mice. Put plainly: Click-evoked Auditory Brain Stem response (ABR) change in drug-treated Junbo (Jbo/+) mice, chronic otitis media model. It is filed as in vivo, mouse. Here is the method:
as §1, §2, §3

Where [2] appears, read: both 50 mg/kg and 75 mg/kg trials, 4 wk, vs sham.

Consider `CNC(=O)c1cc(Oc2ccc(NC(=O)Nc3ccc(Cl)c(C(F)(F)F)c3)cc2)ccn1` [BAY 43-9006], for which the “Tolerability / adverse signs” value is “not as well tolerated as PTK787” in the data set with mice (Junbo (Jbo/+) mutant and WT, 2 wk); “mice suddenly became piloerect” in the data set on mice. Besides, the Lymphatic vessel dilation in data set [1] (2 wk trial, n=11, sham 14.2±0.9 μm, P=0.0072) is recorded as 9.9±1.0 μm. Further, in the data set with WT mice (30 mg/kg, 15 days, mean ± SEM (n)), the “ΔABR (dB) WT” value was −2.0 ± 1.2 (5) dB. For the same molecule, the “ΔABR (dB) Jbo/+ drug” value in the data set on Jbo/+ mice (Jbo/+ mice, 30 mg/kg, 15 days, oral gavage once a day, mean ± SEM (n)) is 0.9 ± 1.5 (11)^e dB. In the data set on Jbo/+ mice (Jbo/+ mice, treatment for 2 wk, vs sham control), the “Effect on hearing loss” value is listed as “reduced hearing loss”.

Take `CO[C@H]1/C=C\C=C(/C)C(=O)NC2=CC(=O)C(NCCN(C)C)=C(C[C@@H](C)C[C@H](OC)[C@H](O)[C@@H](C)/C=C(\C)[C@@H]1OC(N)=O)C2=O` [17-DMAG, 17-dimethylaminoethylamino-17-demethoxy-geldanamycin]: the “Effect on hearing loss” value in the data set with Jbo/+ mice (Jbo/+ mice, 10 mg/kg, 28 d treatment, vs sham (FIG. 6E)) is “moderated hearing loss”.

Turning to `Clc1ccc(Nc2nnc(Cc3ccncc3)c3ccccc23)cc1` [PTK787/ZK 222584], the Mucosal thickening entry in data set [1] (50 mg/kg trial, 4 wk, vs sham) is listed as “moderated mucosal thickening”. In data set [1] (75 mg/kg dosage group, 4 wk, vs sham), the Lymphatic vessel dilation entry is on record as “moderated”. The “Angiogenesis (blood vessel number in mucosa)” value in data set [1] (setting [2]) was “reduced”. In addition, in data set [1] (setting [2]), the Lymphatic vessel number entry is reported as “reduced”. The “ΔABR (dB) WT” value in the data set with WT mice (50 mg/kg, 21 days, mean ± SEM (n)) is listed as −0.6 ± 1.1 (8) dB; in the data set with WT mice (75 mg/kg, 28 days, mean ± SEM (n)), 0.0 ± 0.9 (8) dB.

Consider `CN(CCOc1ccc(CC2SC(=O)NC2=O)cc1)c1ccccn1` (stereo not shown) [Rosiglitazone], for which the “ΔABR (dB) WT” value with WT mice (20 mg/kg, 28 days, mean, SEM (n) printed in the row below) came out at 1.4 dB. Moreover, in the data set with Jbo/+ mice (Jbo/+ mice, 20 mg/kg, 28 days, mean, SEM (n) printed in the row below), the “ΔABR (dB) Jbo/+ drug” value came to 9.7 dB.

For the molecule `CCN(CC)CCNC(=O)c1c(C)[nH]c(/C=C2\C(=O)Nc3ccc(F)cc32)c1C` [SU-11248], in the data set on Jbo/+ mice (Junbo mice, 28 d treatment, vs sham (FIG. 6B)), the “Effect on hearing loss” value is reported as “moderates hearing loss”.
